Laboratory results as given in ChEMBL document CHEMBL5042495, “Lead Optimization of Influenza Virus RNA Polymerase Inhibitors Targeting PA-PB1 Interaction” (J Med Chem, 2022).

Legend:
[1] = Cytotoxicity in dog MDCK cells assessed as reduction in cell viability incubated for 48 hrs by crystal violet staining based assay; type: toxicity, Canis lupus familiaris
Influenza A virus = assay: Antiviral activity against Influenza A virus A/WSN/33(H1N1) strain infected in MDCK cells assessed as reduction in viral infection incubated for 48 hrs by crystal violet staining based assay; type: functional, organism-based

SMILES	CC50 at 48 h [1] [µM]	EC50 (Influenza A virus) [µM]
COc1ccc(CN(Cc2ccc(C(C)(C)C)cc2)Cc2cc3ccccc3[nH]c2=O)cc1	1.8	
CCc1ccc2[nH]c(=O)c(CN(Cc3ccc(C(C)(C)C)cc3)[C@H](CO)c3ccccc3)cc2c1	> 10	
Cc1ccc2cc(C(C#N)N(Cc3ccccc3)Cc3ccc(C(C)C)cc3)c(=O)[nH]c2c1 (centres undefined)	> 83	5.6
CCc1ccc2[nH]c(=O)c(CN(Cc3ccc(C(C)(C)C)cc3)C(C)c3ccc(OC)cc3)cc2c1 (centres undefined)	> 5	0.22
CCc1ccc2[nH]c(=O)c(CN(Cc3ccc(F)cc3)Cc3ccc(-c4ccccc4)cc3)cc2c1	> 5	
Cc1ccc2cc(CN(Cc3ccc(C(C)(C)C)cc3)CC3CCCCC3)c(=O)[nH]c2c1	> 10	1.9
Cc1ccc2cc(CNCc3ccc(F)cc3)c(=O)[nH]c2c1	> 33	
Cc1ccc2[nH]c(=O)c(CN(Cc3ccc(OC(F)F)cc3)Cc3ccc(C(C)(C)C)cc3)cc2c1	> 5	0.27
C[C@@H](c1ccc(OC(F)(F)F)cc1)N(Cc1ccc(C(F)(F)F)c(Cl)c1)Cc1cc2cc(C3CC3)ccc2[nH]c1=O	7.9	0.12
Cc1cccc2cc(C(C#N)N(Cc3ccccc3)Cc3ccc(F)cc3)c(=O)[nH]c12 (centres undefined)	> 83	38
Cc1cccc2cc(CN(Cc3ccc(F)cc3)Cc3ccc(C(C)(C)C)cc3)c(=O)[nH]c12		1.8
COc1ccc2[nH]c(=O)c(CN(Cc3ccc(N(C)C)cc3)Cc3ccc(C(C)(C)C)cc3)cc2c1	8.5	0.46
CCCCOc1ccc(CN(Cc2ccc(C(C)(C)C)cc2)Cc2cc3cc(C)ccc3[nH]c2=O)cc1	> 5	
Cc1ccc2cc(CN(Cc3ccc(C(C)(C)C)cc3)Cc3cc(F)cc(F)c3)c(=O)[nH]c2c1	> 33	3.5
Cc1ccc2cc(CN(Cc3ccc(F)cc3)Cc3ccc(C(C)C)cc3)c(=O)[nH]c2c1	> 33	2
CCc1ccc2[nH]c(=O)c(CN(Cc3ccc(OCOC)cc3)Cc3ccc(C(C)(C)C)cc3)cc2c1	> 10	1
CCc1ccc2[nH]c(=O)c(CN(Cc3ccc(C(C)(C)C)cc3)Cc3ccc(F)c(F)c3)cc2c1	> 33	63
COc1ccc([C@H](C)N(Cc2ccc(OC(F)(F)F)cc2)Cc2cc3ccccc3[nH]c2=O)cc1	> 10	1.9
CC(c1ccc(N(C)C)c(Cl)c1)N(Cc1ccc(C(C)(C)C)cc1)Cc1cc2cc(C3CC3)ccc2[nH]c1=O (centres undefined)	> 10	0.09
Cc1ccc2[nH]c(=O)c(CN(Cc3ccccc3)Cc3ccc(C(C)(C)C)cc3)cc2c1	> 5	0.92
CN(C)c1ccc(CN(Cc2ccc(C(C)(C)C)cc2)Cc2cc3cc(Cl)ccc3[nH]c2=O)cc1	> 10	1.5
Cc1ccc2[nH]c(=O)c(CN(Cc3ccc(C(N)=O)cc3)Cc3ccc(C(C)(C)C)cc3)cc2c1	> 5	

SMILES	CC50 at 48 h [1] [µM]	EC50 (Influenza A virus) [µM]
CCc1ccc2[nH]c(=O)c(CN(Cc3ccc(F)cc3)Cc3cccc4ccccc34)cc2c1	> 5	
Cc1ccc2[nH]c(=O)c(CN(Cc3ccc(OCC(=O)O)cc3)Cc3ccc(C(C)(C)C)cc3)cc2c1	> 10	2.7
Cc1ccc2[nH]c(=O)c(CN(Cc3ccc(OCC(=O)OC(C)(C)C)cc3)Cc3ccc(C(C)(C)C)cc3)cc2c1	> 10	1.8
Cc1ccc2[nH]c(=O)c(CN(Cc3ccc(OCCO)cc3)Cc3ccc(C(C)(C)C)cc3)cc2c1	> 5	
Cc1ccc2[nH]c(=O)c(C(C#N)N(Cc3ccccc3)Cc3ccc(C(C)C)cc3)cc2c1 (centres undefined)	> 83	15
CN(C)c1ccc(CN(Cc2ccc(C(C)(C)C)cc2)Cc2cc3cc(Br)ccc3[nH]c2=O)cc1	> 10	0.53
COc1ccc([C@H](C)N(Cc2ccc(C(C)(C)C)cc2)Cc2cc3cc(OC)ccc3[nH]c2=O)cc1	4.1	0.12
CCOc1ccc(CN(Cc2ccc(C(C)(C)C)cc2)Cc2cc3cc(C)ccc3[nH]c2=O)cc1	> 10	0.54
Cc1ccc2[nH]c(=O)c(CN(Cc3ccc(C#N)cc3)Cc3ccc(C(C)(C)C)cc3)cc2c1	> 5	0.5
CCc1ccc2[nH]c(=O)c(CN(Cc3ccc(C(C)(C)C)cc3)C(C)c3ccc(F)cc3)cc2c1 (centres undefined)	2.8	0.52
Cc1ccc2[nH]c(=O)c(CN(Cc3ccc(C(C)(C)C)cc3)C(C)c3ccc(N(C)C)c(Cl)c3)cc2c1 (centres undefined)	9.8	0.12
Cc1ccc2cc(C(C#N)N(Cc3ccc(F)cc3)Cc3ccc(C(C)C)cc3)c(=O)[nH]c2c1 (centres undefined)	21	54
COc1ccc([C@H](C)N(Cc2ccc(OC(F)(F)F)cc2)Cc2cc3cc(Cl)ccc3[nH]c2=O)cc1	> 10	3.6
Cc1ccc2[nH]c(=O)c(CN(Cc3ccc(OC(C)C)cc3)Cc3ccc(C(C)(C)C)cc3)cc2c1	> 5	1.5
CCc1ccc2[nH]c(=O)c(CN(Cc3ccc(C(C)(C)C)cc3)C(C)c3ccc(OC(F)F)cc3)cc2c1 (centres undefined)	> 5	0.32
CC(C)c1ccc2[nH]c(=O)c(CN(Cc3ccc(C(C)(C)C)cc3)C(C)c3ccc(N(C)C)c(Cl)c3)cc2c1 (centres undefined)	> 10	0.68
Cc1ccc2[nH]c(=O)c(CN(Cc3ccc(F)cc3)Cc3ccc(C(C)(C)C)cc3)cc2c1	> 27	0.39
Cc1ccc2[nH]c(=O)c(CN(Cc3ccc(F)cc3)Cc3ccc(-c4ccccc4)cc3)cc2c1	> 5	
Cc1ccc2cc(CN(Cc3ccc(Cl)cc3)Cc3ccc(Cl)cc3)c(=O)[nH]c2c1	> 33	
COc1ccc([C@H](C)N(Cc2ccc(C(C)(C)C)cc2)Cc2cc3cc(C(C)C)ccc3[nH]c2=O)cc1	> 10	0.48
CCc1ccc2[nH]c(=O)c(CN(Cc3ccc(C(C)(C)C)cc3)[C@H](C)c3ccc(F)cc3)cc2c1	> 5	
COc1ccc([C@H](C)N(Cc2ccc(C(C)(C)C)cc2)Cc2cc3ccccc3[nH]c2=O)cc1	1.8	

SMILES	CC50 at 48 h [1] [µM]	EC50 (Influenza A virus) [µM]
C[C@H](c1ccc(OC(F)(F)F)cc1)N(Cc1ccc(C(C)(C)C)cc1)Cc1cc2cc(C3CC3)ccc2[nH]c1=O		2.01
Cc1ccc2[nH]c(=O)c(CN(Cc3ccc(C(C)(C)C)cc3)C(C)c3ccc(OC(F)F)cc3)cc2c1 (centres undefined)	> 5	0.36
Cc1ccc2[nH]c(=O)c(CN(Cc3ccc(F)cc3)Cc3cccc4ccccc34)cc2c1	> 5	1.8
CC(c1ccc(OC(F)(F)F)c(Cl)c1)N(Cc1ccc(C(C)(C)C)cc1)Cc1cc2cc(C3CC3)ccc2[nH]c1=O (centres undefined)	> 10	1.2
COCOc1ccc(CN(Cc2ccc(C(C)(C)C)cc2)Cc2cc3cc(C)ccc3[nH]c2=O)cc1	6.4	0.38
CC(c1ccc(N(C)C)c(Cl)c1)N(Cc1ccc(C(C)(C)C)cc1)Cc1cc2cc(Br)ccc2[nH]c1=O (centres undefined)	6.1	0.1
COc1ccc2[nH]c(=O)c(CN(Cc3ccc(C(C)(C)C)cc3)Cc3ccc(C(F)(F)F)c(Cl)c3)cc2c1	> 10	0.085
COc1ccc([C@H](C)N(Cc2ccc(C(C)(C)C)cc2)Cc2cc3cc(C4CC4)ccc3[nH]c2=O)cc1	> 10	0.16
CCc1ccc2[nH]c(=O)c(CN(Cc3ccc(O)cc3)Cc3ccc(C(C)(C)C)cc3)cc2c1	> 10	1.8
CCc1ccc2[nH]c(=O)c(CN(Cc3cccc(F)c3)Cc3ccc4ccccc4c3)cc2c1	> 5	4.1
CCc1ccc2[nH]c(=O)c(CN(CCCO)Cc3ccc(C(C)(C)C)cc3)cc2c1	> 10	
Cc1ccc2cc(CN(Cc3ccc(C(C)(C)C)cc3)C3CCCC3)c(=O)[nH]c2c1	> 10	
Cc1ccc2cc(CN(Cc3ccc(F)cc3)C(=O)c3ccccc3)c(=O)[nH]c2c1	> 33	
Cc1ccc2[nH]c(=O)c(CN(Cc3ccc(C(C)(C)C)cc3)[C@H](C)c3ccc(F)cc3)cc2c1	> 5	
Cc1ccc2cc(C(N(Cc3ccc(F)cc3)Cc3ccc(C(C)C)cc3)C(F)(F)F)c(=O)[nH]c2c1 (centres undefined)	> 33	
CCc1ccc2cc(CN(Cc3ccc(C(C)(C)C)cc3)C3CCCC3)c(=O)[nH]c2c1	> 9	
CC(c1ccc(N(C)C)c(Cl)c1)N(Cc1ccc(OC(F)(F)F)cc1)Cc1cc2cc(Br)ccc2[nH]c1=O (centres undefined)	4.7	
CCCCC(c1cc2ccc(C)cc2[nH]c1=O)N(Cc1ccc(F)cc1)Cc1ccc(C(C)C)cc1 (centres undefined)	> 33	
Cc1ccc2[nH]c(=O)c(CN(CCCO)Cc3ccc(C(C)(C)C)cc3)cc2c1	> 10	
Cc1ccc2[nH]c(=O)c(CN(Cc3ccc(C(C)(C)C)cc3)[C@H](CO)c3ccccc3)cc2c1	> 10	
